Here are results for 20 molecules from publication PMC4884984, “Identification of approved and investigational drugs that inhibit hypoxia-inducible factor-1 signaling” (Oncotarget, 2016).

The experiment deals with HIF-1α–NanoLuc. Put plainly: HIF-1α–NanoLuc reporter gene assay (qHTS primary and confirmatory screens). The format is cell-based, human. As to conditions: for IC50 / Emax: Homo sapiens. A general note: A reporter such as luciferase makes a cellular process visible.
The mark [1] stands for this setting: Table S1, primary screen, hypoxia 1% O2, 18 h, read-out: IC50 (primary screen, HIF-1α–NanoLuc assay).
The mark [2] stands for this setting: Table S1, primary screen, read-out: Efficacy (primary screen, HIF-1α–NanoLuc assay).
[3] abbreviates: Table S2, primary screen, read-out: Pathway inhibitors (primary screen) HIF-1α–NanoLuc Activity Efficacy.
The mark [4] stands for this setting: Table S2, primary screen, read-out: Pathway inhibitors (primary screen) HIF-1α–NanoLuc Activity IC50.
The mark [5] stands for this setting: Table S2, validation, read-out: Pathway inhibitors (validation) HIF-1α–NanoLuc Activity Efficacy.
The mark [6] stands for this setting: Table S2, validation, read-out: Pathway inhibitors (validation) HIF-1α–NanoLuc Activity IC50.

Broadly, the IC50 is the concentration at which inhibition is half-maximal.

Read-outs that look alike come from different tables or passages of the source.

As to `CNC(=O)c1ccccc1Sc1ccc2c(/C=C/c3ccccn3)n[nH]c2c1` [Axitinib], the “Pathway inhibitors (primary screen) HIF-1α–NanoLuc Activity IC50” value (Table S2, primary screen) is “Inactive”.

With `COc1ccc2cc3[n+](cc2c1OC)CCc1cc2c(cc1-3)OCO2` [Berberine], the IC50 under setting [1] turned out to be 0.94 µM. In addition, the Emax under setting [2] was 116%.

Take `COc1cc(Nc2c(C#N)cnc3cc(OCCCN4CCN(C)CC4)c(OC)cc23)c(Cl)cc1Cl` [Bosutinib]: the Emax under setting [3] was 58%. Also, the 50% inhibitory concentration (IC50) under setting [4] was 11.9 µM.

Regarding `O=c1[nH]c(=S)[nH]c(-c2ccccc2)c1Cc1c(O)ccc2ccccc12` [Cambinol], under “Table S2, validation”, the “Pathway inhibitors (validation) HIF-1α–NanoLuc Activity IC50” value is recorded as “Inactive”.

In the case of `Cc1ccc(-c2cc(C(F)(F)F)nn2-c2ccc(S(N)(=O)=O)cc2)cc1` [Celecoxib], the IC50 under setting [1] turned out to be 10.6 µM. In addition, the Emax under setting [2] was found to be 43%.

Turning to `COCCOC(=O)C1=C(C)NC(C)=C(C(=O)OC/C=C/c2ccccc2)C1c1cccc([N+](=O)[O-])c1` (stereo not shown) [Cilnidipine], the IC50 under setting [1] was determined as 10.6 µM. The Emax under setting [2] stood at 63%.

For the molecule `Cn1cc(C2=C(c3cn(C4CCN(Cc5ccccn5)CC4)c4ccccc34)C(=O)NC2=O)c2ccccc21` [Enzastaurin], the Emax by setting is: under setting [3], 39%; under setting [5], 67 ± 6%. The IC50 runs as follows: under setting [4], 15 µM; under setting [6], 2.06 ± 3.3 µM.

As to `COc1cccc2c1C(=O)c1c(O)c3c(c(O)c1C2=O)C[C@@](O)(C(=O)CO)C[C@@H]3O[C@H]1C[C@H](N)[C@@H](O)[C@H](C)O1` [Epirubicin], the IC50 under setting [1] turned out to be 0.3 µM. Besides, the Emax under setting [2] worked out at 108%.

`CN1CC[C@H](c2c(O)cc(O)c3c(=O)cc(-c4ccccc4Cl)oc23)[C@H](O)C1` [Flavopiridol]: the half-maximal inhibitory concentration (IC50) under setting [1] worked out at 1.06 µM. In addition, the Emax under setting [2] amounted to 76%.

As for `Cn1nccc1Nc1nccc(-c2ccn([C@H](CO)c3ccc(Cl)c(F)c3)c(=O)c2)n1` [GDC-0994], the Emax under setting [5] came to 63 ± 7%. The IC50 under setting [6] worked out at 6.11 ± 1.64 µM.

On to `O=c1c(-c2ccc(O)cc2)coc2cc(O)cc(O)c12` [Genistein], for which the concentration for half-maximal inhibition (IC50) under setting [1] turned out to be 8.41 µM. The Emax under setting [2] was determined as 65%.

In the case of `CC[C@@]1(O)C(=O)OCc2c1cc1n(c2=O)Cc2c-1nc1ccccc1c2/C=N/OC(C)(C)C` [Gimatecan], the IC50 under setting [1] came to 0.6 µM. Also, the Emax under setting [2] came out at 108% and the Emax under setting [3] is 108%.

Take `Cc1ccc(NC(=O)c2ccc(CN3CCN(C)CC3)cc2)cc1Nc1nccc(-c2cccnc2)n1` [Imatinib]: the Emax under setting [3] turned out to be 28%.

With `COC(=O)C1=C(C)NC(C)=C(C(=O)OC(C)(C)CN(C)CCC(c2ccccc2)c2ccccc2)C1c1cccc([N+](=O)[O-])c1` (stereo not shown) [Lercanidipine], the concentration for half-maximal inhibition (IC50) under setting [1] worked out at 11.9 µM. Moreover, under setting [2], the Emax came out at 63%.

For `NC1(c2ccc(-c3nc4ccn5c(=O)[nH]nc5c4cc3-c3ccccc3)cc2)CCC1` [MK-2206], the Emax under setting [3] turned out to be 45%. Under setting [4], the IC50 amounted to 0.42 µM.

Regarding `COC(=O)C1=C(C)NC(C)=C(C(=O)OCCN2CCN(C(c3ccccc3)c3ccccc3)CC2)C1c1cccc([N+](=O)[O-])c1` (stereo not shown) [Manidipine], the concentration for half-maximal inhibition (IC50) under setting [1] is 9.44 µM. Besides, the Emax under setting [2] is 86%.

Take `Cc1c(O)cccc1C(=O)N[C@@H](CSc1ccccc1)[C@H](O)CN1C[C@H]2CCCC[C@H]2C[C@H]1C(=O)NC(C)(C)C` [Nelfinavir]: the IC50 under setting [1] was found to be 21.1 µM. Besides, the Emax under setting [2] came to 120%.

Turning to `COc1cccc2c1C(=O)c1c(O)c3c(c(O)c1C2=O)C[C@@](O)(C(=O)CO)C[C@@H]3O[C@H]1C[C@H](N2CCO[C@H](OC)C2)[C@H](O)[C@H](C)O1` [Nemorubicin], where the note is “18 h, read-out: IC50 (primary screen, HIF-1α–NanoLuc assay)”, the IC50 was 0.08 µM. Besides, the Emax (read-out: Efficacy (primary screen, HIF-1α–NanoLuc assay)) was 111%.

Turning to `COCCOC(=O)C1=C(C)NC(C)=C(C(=O)OC(C)C)C1c1cccc([N+](=O)[O-])c1` (stereo not shown) [Nimodipine], under setting [1], the half-inhibitory concentration (IC50) turned out to be 15 µM. In addition, under setting [2], the Emax stood at 132%.

As for `CCOC(=O)C1=C(C)NC(C)=C(C(=O)OC)C1c1cccc([N+](=O)[O-])c1` (stereo not shown) [Nitrendipine], the concentration for half-maximal inhibition (IC50) under setting [1] worked out at 15 µM. Also, under setting [2], the Emax turned out to be 157%.
